In ChEMBL document CHEMBL4325854, “Synthetic small molecules as anti-biofilm agents in the struggle against antibiotic resistance” (Eur J Med Chem, 2019):

Legend:
[1] = system: Staphylococcus epidermidis; test: Antibiofilm activity against Staphylococcus epidermidis DSM 3269 at 1.5 ug/ml relative to control; type: functional
[2] = system: Staphylococcus epidermidis; test: Antibiofilm activity against Staphylococcus epidermidis RP62A at 1.5 ug/ml relative to control; type: functional
Staphylococcus aureus [3] = test: Antibiofilm activity against Staphylococcus aureus isolate 702 at 1.5 ug/ml relative to control; type: functional
Staphylococcus aureus [4] = test: Antibiofilm activity against Staphylococcus aureus ATCC 25923 at 1.5 ug/ml relative to control; type: functional
Staphylococcus aureus [5] = test: Antibiofilm activity against Staphylococcus aureus ATCC 29213 at 1.5 ug/ml relative to control; type: functional
Staphylococcus aureus [6] = test: Antibiofilm activity against Staphylococcus aureus isolate 657 at 1.5 ug/ml relative to control; type: functional
[7] = system: Staphylococcus epidermidis; test: Antibiofilm activity against Staphylococcus epidermidis at 25 ug/ml relative to control; type: functional
Staphylococcus aureus [8] = test: Antibiofilm activity against Staphylococcus aureus ATCC 29213 at 25 ug/ml relative to control; type: functional
Enterococcus faecalis = test: Antibiofilm activity against Enterococcus faecalis ATCC 29212; type: functional
Staphylococcus aureus [9] = test: Antibiofilm activity against Staphylococcus aureus BAA-1026; type: functional
[10] = system: Bordetella bronchiseptica; test: Antibiofilm activity against Bordetella bronchiseptica RB50 assessed as inhibition of biofilm dispersion; type: functional, organism-based
Pseudomonas aeruginosa [11] = test: Antibiofilm activity against Pseudomonas aeruginosa PA14 assessed as inhibition of biofilm dispersion; type: functional, organism-based
Staphylococcus aureus [12] = test: Antibiofilm activity against methicillin-resistant Staphylococcus aureus; type: functional, organism-based; details: Staphylococcus aureus
Staphylococcus aureus [13] = test: Synergistic antibacterial activity against methicillin-resistant Staphylococcus aureus assessed as fold reduction in penicillin G MIC; type: functional
Staphylococcus aureus [14] = test: Synergistic antibacterial activity against methicillin-resistant Staphylococcus aureus assessed as fold reduction in oxacillin MIC; type: functional
Sortase A = target: T1, Sortase A (Staphylococcus aureus, UniProt Q9S446); test: Inhibition of Staphylococcus aureus SrtA
T1 sequence (Q9S446 whole entry): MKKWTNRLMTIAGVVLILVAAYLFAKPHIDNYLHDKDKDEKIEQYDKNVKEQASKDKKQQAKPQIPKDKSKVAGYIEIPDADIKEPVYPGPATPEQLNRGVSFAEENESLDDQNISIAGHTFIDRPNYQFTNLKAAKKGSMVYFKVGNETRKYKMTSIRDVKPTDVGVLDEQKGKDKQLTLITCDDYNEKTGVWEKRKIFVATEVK

Acinetobacter baumannii [15] = test: Antibiofilm activity against Acinetobacter baumannii preformed biofilms; type: functional, organism-based
Staphylococcus aureus [16] = test: Antibiofilm activity against Staphylococcus aureus at 100 uM relative to control; type: functional
Pseudomonas aeruginosa [17] = test: Antibiofilm activity against Pseudomonas aeruginosa PAO1 assessed as inhibition of biofilm dispersion; type: functional, organism-based
Pseudomonas aeruginosa [18] = test: Antibiofilm activity against Pseudomonas aeruginosa PAO1; type: functional, organism-based
Pseudomonas aeruginosa [19] = test: Antibiofilm activity against Pseudomonas aeruginosa PA14; type: functional, organism-based
Acinetobacter baumannii [20] = test: Antibiofilm activity against Acinetobacter baumannii; type: functional, organism-based
Staphylococcus aureus [21] = test: Antibiofilm activity against Staphylococcus aureus ATCC 29213; type: functional, organism-based

SMILES: O=C(c1cc(Br)ccc1O)c1[nH]c(Br)c(Br)c1Br
- Activity [1]: >60%
- Activity [2]: >60%
- Activity (Staphylococcus aureus [3]): >60%
- Activity (Staphylococcus aureus [4]): >60%
- Activity (Staphylococcus aureus [5]): >60%
- Activity (Staphylococcus aureus [6]): >60%

SMILES: Cc1nn(C)c([N-]C(=O)c2ccc(Cl)cc2)c1[N+]#N
- Activity [7]: 69 - 96%
- Activity (Staphylococcus aureus [8]): 69 - 96%

SMILES: O=C(c1cc(Br)ccc1O)c1[nH]c(Cl)c(Br)c1Br
- Activity [1]: >60%
- Activity [2]: >60%
- Activity (Staphylococcus aureus [3]): >60%
- Activity (Staphylococcus aureus [4]): >60%
- Activity (Staphylococcus aureus [5]): >60%
- Activity (Staphylococcus aureus [6]): >60%

SMILES: c1ccc(-c2nc(-c3ccc(-c4nc(-c5cccc6ccccc56)cs4)cc3)cs2)cc1
- MBEC (Enterococcus faecalis): 4 µg/mL
- MBEC (Staphylococcus aureus [9]): 250 µg/mL

SMILES: Nc1nc(CCCNC(=O)c2cc(Br)c(Br)n2-c2ccc(Br)cc2)c[nH]1
- IC50 [10]: 29.3 µM
- IC50 (Pseudomonas aeruginosa [11]): 16.4 µM

SMILES: COC(=O)Oc1c(Br)cc(Br)c2nc3ccccc3nc12
- IC50 (Staphylococcus aureus [12]): 1.4 to 2.9 µM

SMILES: CCCCc1ccc(C(=O)NCCn2cc(CCCCc3[nH]c(N)nc3-c3cnc4ccccc4c3)nn2)cc1
- IC50 (Staphylococcus aureus [12]): 4.2 µM

SMILES: CCCCCc1cccc(C(=O)NCCNC(=O)CCCCCc2cnc(N)[nH]2)c1
- IC50 (Staphylococcus aureus [12]): 6.5 µg/mL
- fold change (FC) (Staphylococcus aureus [13]): 16
- fold change (FC) (Staphylococcus aureus [14]): 64

SMILES: Nc1nc(CCCNC(=O)c2cc(Br)c(Br)n2CCc2ccccc2)c[nH]1
- IC50 [10]: 22.5 µM
- IC50 (Pseudomonas aeruginosa [11]): 22.9 µM

SMILES: CCCCCCCc1ccc(NC(=O)CCn2cc(C[C@@]34CNC[C@@H]3Nc3ccccc34)nn2)cc1
- IC50 (Staphylococcus aureus [12]): 2.8 µM

SMILES: O=C(c1cc(Br)cc(Br)c1O)c1[nH]c(Br)c(Br)c1Br
- Activity [1]: >60%
- Activity [2]: >60%
- Activity (Staphylococcus aureus [3]): >60%
- Activity (Staphylococcus aureus [4]): >60%
- Activity (Staphylococcus aureus [5]): >60%
- Activity (Staphylococcus aureus [6]): >60%

SMILES: CCOC(=O)/C(=N/Nc1ccccc1)C(C)=O
- IC50 (Sortase A): 192 µM

SMILES: CCCCOc1ccc(/C=C(\C)Cn2cc(CCCCCc3c[nH]c(N)n3)nn2)cc1
- EC50 (Staphylococcus aureus [12]): 4.5 to 9.8 µM
- EC50 (Acinetobacter baumannii [15]): 44.7 to 59.6 µM

SMILES: CC(=O)/C(C#N)=N\Nc1ccccc1
- IC50 (Sortase A): 50 to 92 µM
- Activity (Staphylococcus aureus [16]): 39.2 - 68.3%

SMILES: O=[N+]([O-])c1ccc(-c2csc(-c3ccc(-c4csc(-c5ccccc5)n4)cc3)n2)cc1
- MBEC (Enterococcus faecalis): 2 µg/mL
- MBEC (Staphylococcus aureus [9]): >1000 µg/mL

SMILES: O=C(c1cc(Br)ccc1O)c1[nH]c(Cl)c(Cl)c1Br
- Activity [1]: >60%
- Activity [2]: >60%
- Activity (Staphylococcus aureus [3]): >60%
- Activity (Staphylococcus aureus [4]): >60%
- Activity (Staphylococcus aureus [5]): >60%
- Activity (Staphylococcus aureus [6]): >60%

SMILES: C/C(=C\c1cccc2ccccc12)Cn1cc(CCCCCc2c[nH]c(N)n2)nn1
- EC50 (Staphylococcus aureus [12]): 4.5 to 9.8 µM
- EC50 (Acinetobacter baumannii [15]): 44.7 to 59.6 µM

SMILES: CCCCCCNC(=O)CCCc1c[nH]c(N)n1
- IC50 (Pseudomonas aeruginosa [17]): 32.7 µM
- IC50 (Pseudomonas aeruginosa [11]): 39.9 µM

SMILES: CCCCc1ccc(C(=O)NCCn2cc(CCCCc3[nH]c(N)nc3-c3ccoc3)nn2)cc1
- IC50 (Staphylococcus aureus [12]): 7.2 µM

SMILES: CCCCCCCCCCCCCCNC(=O)Cn1cc(C[C@@]23CNC[C@@H]2Nc2ccccc23)nn1
- IC50 (Staphylococcus aureus [12]): 5.4 µM

SMILES: CCCCCCCCCCCCNC(=O)CCCc1c[nH]c(N)n1
- IC50 (Pseudomonas aeruginosa [17]): 2.8 µM
- IC50 (Pseudomonas aeruginosa [11]): 2.26 µM
- IC50 (Pseudomonas aeruginosa [18]): 2.84 µM
- IC50 (Pseudomonas aeruginosa [19]): 2.26 µM

SMILES: O=C(c1cc(Br)c(F)[nH]1)c1cc(Cl)cc(Cl)c1O
- Activity [1]: >60%
- Activity [2]: >60%
- Activity (Staphylococcus aureus [3]): >60%
- Activity (Staphylococcus aureus [4]): >60%
- Activity (Staphylococcus aureus [5]): >60%
- Activity (Staphylococcus aureus [6]): >60%

SMILES: CCCCCc1ccc(C(=O)NCCn2cc(CCCCCc3c[nH]c(N)n3)nn2)cc1
- IC50 (Staphylococcus aureus [12]): 15.2 to 34 µM
- IC50 (Acinetobacter baumannii [20]): 15.2 to 34 µM

SMILES: CC(=O)/C(=N\Nc1cccc(Cl)c1)C(=O)O
- IC50 (Sortase A): 50 to 92 µM
- Activity (Staphylococcus aureus [16]): 39.2 - 68.3%

SMILES: CCOC(=O)/C(=N/Nc1ccc(Cl)c(Cl)c1)C(=O)c1cc(C)nn1CC
- IC50 (Staphylococcus aureus [21]): 1.7 µM

SMILES: CCCCCCCCNC(=O)CCCc1c[nH]c(N)n1
- IC50 (Pseudomonas aeruginosa [17]): 18.4 µM
- IC50 (Pseudomonas aeruginosa [11]): 13.3 µM
